This note sets out measurements from ChEMBL document CHEMBL4680263, “Identification of benzothiazinones containing 2-benzyl-2,7-diazaspiro[3.5]nonane moieties as new antitubercular agents” (Eur J Med Chem, 2020).

Bounds are passed on as bounds.

Assay [1] deals with Mycobacterium tuberculosis. As to the kind of experiment: Antimycobacterial activity against multidrug resistance Mycobacterium tuberculosis 16883 clinical isolate assessed as inhibition of bacterial growth incubated for 7 days by MABA assay. The class given is functional. To be noted: Mycobacterium tuberculosis, 16883, 168 h; time 7 day. In general terms: The colour change of resazurin is a common sign of viable cells or microbes.

Assay [2] has as its system Mycobacterium tuberculosis. As to the kind of experiment: Antimycobacterial activity against multidrug resistance Mycobacterium tuberculosis 16995 clinical isolate assessed as inhibition of bacterial growth incubated for 7 days by MABA assay. It is filed as functional. The following applies: Mycobacterium tuberculosis, 16995, 168 h; time 7 day.

A word on the MIC: it is the lowest concentration found to suppress growth.

For `O=c1nc(N2CCC3(CC2)CN(Cc2ccc(Br)cc2)C3)sc2c([N+](=O)[O-])cc(C(F)(F)F)cc12`, the MIC in assay [1] and in assay [2] was less than 0.016 µg/mL in each case.
Take `O=c1nc(N2CCC3(CC2)CN(Cc2ccc(F)cc2)C3)sc2c([N+](=O)[O-])cc(C(F)(F)F)cc12`: the MIC in assay [1] and in assay [2] was less than 0.016 µg/mL throughout.
Regarding `O=c1nc(N2CCN(CC3CCCCC3)CC2)sc2c([N+](=O)[O-])cc(C(F)(F)F)cc12` [MACOZINONE], the MIC in assay [1] and in assay [2] was less than 0.016 µg/mL throughout.
Turning to `CC(c1ccc(Cl)cc1)N1CC2(CCN(c3nc(=O)c4cc(C(F)(F)F)cc([N+](=O)[O-])c4s3)CC2)C1` (centres undefined), the minimum inhibitory concentration (MIC) in assay [1] and in assay [2] was less than 0.016 µg/mL each time.
Consider `CC(c1ccc(F)c(F)c1)N1CC2(CCN(c3nc(=O)c4cc(C(F)(F)F)cc([N+](=O)[O-])c4s3)CC2)C1` (centres undefined), for which the MIC in assay [1] and in assay [2] was less than 0.016 µg/mL each time.
Regarding `CC(c1ccc(F)c(Cl)c1)N1CC2(CCN(c3nc(=O)c4cc(C(F)(F)F)cc([N+](=O)[O-])c4s3)CC2)C1` (centres undefined), the minimal inhibitory concentration (MIC) in assay [1] and in assay [2] was less than 0.016 µg/mL each time.
Turning to `CO[C@H]1/C=C/O[C@@]2(C)Oc3c(C)c(O)c4c(O)c(c(/C=N/N5CCN(C)CC5)c(O)c4c3C2=O)NC(=O)/C(C)=C\C=C\[C@H](C)[C@H](O)[C@@H](C)[C@@H](O)[C@@H](C)[C@H](OC(C)=O)[C@@H]1C` [RIFAMPIN], the MIC in assay [1] and in assay [2] was greater than 10 µg/mL throughout.
With `CC(c1cccc(F)c1)N1CC2(CCN(c3nc(=O)c4cc(C(F)(F)F)cc([N+](=O)[O-])c4s3)CC2)C1` (centres undefined), the MIC in assay [1] and in assay [2] was less than 0.016 µg/mL throughout.
On to `CC(c1ccc(Cl)c(F)c1)N1CC2(CCN(c3nc(=O)c4cc(C(F)(F)F)cc([N+](=O)[O-])c4s3)CC2)C1` (centres undefined), for which the MIC in assay [1] and in assay [2] was less than 0.016 µg/mL throughout.
`O=c1nc(N2CCC3(CC2)CN(Cc2ccc(C(F)(F)F)cc2)C3)sc2c([N+](=O)[O-])cc(C(F)(F)F)cc12`: the MIC in assay [1] and in assay [2] was less than 0.016 µg/mL each time.
Turning to `CC(c1ccc(C(F)(F)F)cc1)N1CC2(CCN(c3nc(=O)c4cc(C(F)(F)F)cc([N+](=O)[O-])c4s3)CC2)C1` (centres undefined), the MIC in assay [1] and in assay [2] was less than 0.016 µg/mL in each case.
Consider `CC(c1cc(F)c(F)c(F)c1)N1CC2(CCN(c3nc(=O)c4cc(C(F)(F)F)cc([N+](=O)[O-])c4s3)CC2)C1` (centres undefined), for which the MIC in assay [1] and in assay [2] was less than 0.016 µg/mL each time.
As to `O=c1nc(N2CCC3(CC2)CN(Cc2cccc(F)c2)C3)sc2c([N+](=O)[O-])cc(C(F)(F)F)cc12`, the MIC in assay [1] and in assay [2] was less than 0.016 µg/mL throughout.
As for `CC(c1ccc(OC(F)(F)F)cc1)N1CC2(CCN(c3nc(=O)c4cc(C(F)(F)F)cc([N+](=O)[O-])c4s3)CC2)C1` (centres undefined), the MIC in assay [1] and in assay [2] was less than 0.016 µg/mL each time.
As to `NNC(=O)c1ccncc1` [ISONIAZID], the minimal inhibitory concentration (MIC) in assay [1] and in assay [2] was greater than 10 µg/mL in each case.
Consider `CC(c1cc(F)cc(F)c1)N1CC2(CCN(c3nc(=O)c4cc(C(F)(F)F)cc([N+](=O)[O-])c4s3)CC2)C1` (centres undefined), for which the minimum inhibitory concentration (MIC) in assay [1] and in assay [2] was less than 0.016 µg/mL in each case.
With `CC(c1ccc(OC(F)(F)F)cc1)N1CCC2(CC1)CN(c1nc(=O)c3cc(C(F)(F)F)cc([N+](=O)[O-])c3s1)C2` (centres undefined), the MIC in assay [1] and in assay [2] was less than 0.016 µg/mL in each case.
In the case of `CC(c1ccc(F)cc1F)N1CC2(CCN(c3nc(=O)c4cc(C(F)(F)F)cc([N+](=O)[O-])c4s3)CC2)C1` (centres undefined), the minimal inhibitory concentration (MIC) in assay [1] and in assay [2] was less than 0.016 µg/mL each time.
As for `CC(c1ccc(Br)cc1)N1CC2(CCN(c3nc(=O)c4cc(C(F)(F)F)cc([N+](=O)[O-])c4s3)CC2)C1` (centres undefined), the minimum inhibitory concentration (MIC) in assay [1] and in assay [2] was less than 0.016 µg/mL each time.
Take `O=c1nc(N2CCC3(CC2)CN(Cc2cc(F)cc(F)c2)C3)sc2c([N+](=O)[O-])cc(C(F)(F)F)cc12`: the MIC in assay [1] and in assay [2] was less than 0.016 µg/mL each time.
Consider `CC(c1ccc(F)cc1)N1CC2(CCN(c3nc(=O)c4cc(C(F)(F)F)cc([N+](=O)[O-])c4s3)CC2)C1` (centres undefined), for which the minimum inhibitory concentration (MIC) in assay [1] and in assay [2] was less than 0.016 µg/mL in each case.
With `O=c1nc(N2CCC3(CC2)CN(Cc2ccc(OC(F)(F)F)cc2)C3)sc2c([N+](=O)[O-])cc(C(F)(F)F)cc12`, the minimal inhibitory concentration (MIC) in assay [1] and in assay [2] was less than 0.016 µg/mL throughout.
